melting point [°C]	SMILES
181 to 186	O=C(NNc1ccccc1)c1ccc(F)cc1
121 to 124	COc1ccccc1-n1ccc(=N)cc1
205	S=C(Nc1ccccc1)N1CCc2[nH]cnc2C1
> 270	Cn1ncc2[nH]c3ccc(Cc4cccc(O)c4)cc3c(=O)c21
63 to 66	COC(=O)c1sc2ccc(SC)cc2c1N(C)C
56 to 57	CCOC(=O)c1c(C)cc2cnc(-c3ccccc3C)nc2c1C
101 to 103	COC(=O)c1cc(N=Cc2ccccc2)ccc1OC(C)=O
245 to 247	Cc1c(Nc2c(C#N)cncc2-c2nccs2)ccc2[nH]ccc12
153	Cc1ncc(Cn2c(S)nc3ccccc32)o1
188 to 190	Cc1ccc(Nc2nc(CO)cs2)c(O)c1
33 to 34	COCCOCCOC(=O)C#CC(=O)c1cc(OC)c(OC)c(OC)c1
230	O=C(CCl)NC1(c2ccccc2Cl)C(=O)Nc2ccc(Cl)cc21 (stereo not given)
168	COc1ccc(-c2ccc3c(c2)CCC3=O)c2c1OCCO2
122 to 123	CCCc1nn(-c2ccc(C(F)(F)F)cn2)cc1CCCCOc1cc(CCC(=O)O)n(C)n1
213	Cc1ccc(-c2cncc(OC3SCC(O)C(O)C3O)c2)cc1F (stereo not given)
184 to 186	CC(=O)NC(=O)C(SCc1ccccc1)C(c1ccccc1)(c1ccccc1)c1ccccc1 (stereo not given)

Further lines, the molecule ahead of its results:

SMILES	melting point [°C]
CCCCCC1CCC2c3ccc(OCC)c(F)c3OC2C1 (stereo not given)	118
CC(Cl)C(=O)CCCCN1C(=O)c2ccccc2C1=O (stereo not given)	61 to 63
N#CCCNC(=O)c1cccc(-c2ccnc3cc(Cc4cccc(C(F)(F)F)c4)oc23)c1	164 to 165
c1ccc(OCCSCc2ncc(-c3ccc(N=C(c4ccccc4)c4ccccc4)cc3)o2)cc1	86 to 90
CCn1ncc2c(Cl)c3cc(S(C)(=O)=O)ccc3nc21	158 to 160
CCOC(=O)c1c(C(=O)c2nc(OC)cc(OC)n2)ccnc1Br	98 to 99
CCCCCCCCCCCCCCCCCCNC(=O)OCC(CN(C(C)=O)S(=O)(=O)CCCCl)NC(C)=O (stereo not given)	116 to 117
Cc1cn(C)cc(-c2cccc(C(F)(F)F)c2)c1=O	130 to 131
Nc1nc2c(s1)CCN(CC=Cc1ccccc1OCc1ccccc1)CC2	103 to 107
C[Si](C)(c1ccc(N(c2ccccc2)c2ccccc2)cc1)c1ccc(N(c2ccccc2)c2ccccc2)cc1	170 to 172
Cc1ccc(-c2ccc([C@H](C)N3CC[C@](CC(C)(C)O)(c4ccccc4)OC3=O)cc2)nn1	150 to 152
CCSc1cc(SCC)c2ccc3c(SCC)cc(SCC)c4ccc1c2c43	180
CN1CCC(O)(Cc2ccccc2F)CC1	93 to 95
O=C(Nc1ccc([N+](=O)[O-])cc1)N1CCN(c2ncnc3ccccc23)CC1	155 to 158
CCCCc1oc2ccccc2c1C(=O)c1ccc2c(Br)c(OC(Cc3ccccc3)C(=O)O)ccc2c1 (stereo not given)	165 to 167
Cc1ccc(Nc2ccccn2)c(C)c1[N+](=O)[O-]	178 to 179
CCS(=O)(=O)Nc1cc(-n2nc3n(c2=O)CCCC3)c(F)cc1C(N)=S	220

SMILES	melting point [°C]
CCOC(=O)C=Cc1cc(OC)c(OC)c(OC)c1	63.4
CNC(=O)Nc1cc2c(c3c1OC(C)(C)C3)C(c1ccccc1)=NC(C)(C)C2	209 to 211
c1cncc(-c2cc(C3CC3)on2)c1	70 to 73
OP(O)C(C=Cc1ccccc1)NC(c1ccccc1)c1ccccc1 (stereo not given)	202 to 203
O=C(c1ccccc1Cl)c1cc(Cl)ccc1C(=O)C(Br)CN1C(=O)c2ccccc2C1=O (stereo not given)	178 to 179
Cn1cncc1C(O)(c1ccc(C#N)cc1)c1ccc2c(c1)c(-c1cccc(Cl)c1)cc(=O)n2C (stereo not given)	210
CCN(Cc1cccnc1)C(=S)NC	122 to 123
COc1ccc(C(=O)Nc2ccc(C(=O)N3CCOCC3)cc2)cc1C12CC3CC(CC(C3)C1)C2	238 to 241
CCOC(=O)C1CN(C(=O)OCc2ccccc2)CC1=O (stereo not given)	56.6 to 59.7
Cc1sc(-c2ccccc2)nc1COc1ccc(C=O)cn1	120 to 121
O=C(O)CCCCCCN1C(=O)c2ccccc2C1=O	112 to 115
O=[N+]([O-])c1cc(Cl)c(O)cc1OCCO	159
CC1(C)CC(=O)c2c(SCc3ccco3)sc(-c3cc[nH]n3)c2C1	198 to 200
Cn1c(C(F)(F)F)nnc1S(C)(=O)=O	96
CSc1cnc(NC2=NCC3(CN4CCC3CC4)O2)cn1 (stereo not given)	155 to 160
Fc1ccc(F)c(-c2coc3ccc(-c4nnc(S)o4)cc23)c1	206 to 207
C=CCNC(=Nc1ccc(-c2c[nH]cn2)cc1)S(=O)(=O)O	183 to 184
